Experimental data reported in patent publication US20240182531A1, “KV1.3 Blockers” (priority 2021, published 2024).
Where a SMILES comes first, the peptide text is derived from it. Bridges are numbered along the chain shown (N, C = ends). [ ]: non-standard residue; d: D form. Nle = CCCC[C@H](N)C(=O)O

Tests used:
human Kv1.6 = biological target: T1, human Kv1.6 (Homo sapiens, UniProt P17658); assay: cell-based; conditions: ratio of patch clamp IC50 values
T1 construct: expressed in transfected cells; host or cells: CHO

human Kv1.2 = biological target: T2, human Kv1.2 (Homo sapiens, UniProt P16389); assay: cell-based; conditions: ratio of patch clamp IC50 values
T2 construct: expressed in transfected cells; host or cells: CHO

human Kv1.1 = biological target: T3, human Kv1.1 (Homo sapiens, UniProt Q09470); assay: cell-based; conditions: ratio of patch clamp IC50 values
T3 construct: expressed in transfected cells; host or cells: CHO

Rat whole blood = Rat whole blood (Rattus norvegicus, UniProt P15384); format: cell-based; conditions: IL-17A release, thapsigargin, 24 Hr, at least 2 replicates
Sequence of Rat whole blood (P15384 whole entry): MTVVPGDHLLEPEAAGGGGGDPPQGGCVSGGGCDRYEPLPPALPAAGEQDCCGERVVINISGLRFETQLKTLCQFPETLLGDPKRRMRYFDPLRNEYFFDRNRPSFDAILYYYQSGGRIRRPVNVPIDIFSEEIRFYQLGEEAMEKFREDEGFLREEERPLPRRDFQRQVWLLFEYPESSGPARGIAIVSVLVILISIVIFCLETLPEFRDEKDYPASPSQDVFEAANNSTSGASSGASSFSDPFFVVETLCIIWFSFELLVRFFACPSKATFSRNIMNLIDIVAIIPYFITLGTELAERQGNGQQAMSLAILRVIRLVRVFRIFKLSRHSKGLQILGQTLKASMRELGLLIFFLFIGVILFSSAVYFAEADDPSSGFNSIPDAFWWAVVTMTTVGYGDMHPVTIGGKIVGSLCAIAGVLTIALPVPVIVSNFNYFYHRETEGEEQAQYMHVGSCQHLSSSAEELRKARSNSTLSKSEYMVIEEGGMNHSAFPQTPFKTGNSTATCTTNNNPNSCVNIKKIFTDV

T2 sequence (P16389 whole entry): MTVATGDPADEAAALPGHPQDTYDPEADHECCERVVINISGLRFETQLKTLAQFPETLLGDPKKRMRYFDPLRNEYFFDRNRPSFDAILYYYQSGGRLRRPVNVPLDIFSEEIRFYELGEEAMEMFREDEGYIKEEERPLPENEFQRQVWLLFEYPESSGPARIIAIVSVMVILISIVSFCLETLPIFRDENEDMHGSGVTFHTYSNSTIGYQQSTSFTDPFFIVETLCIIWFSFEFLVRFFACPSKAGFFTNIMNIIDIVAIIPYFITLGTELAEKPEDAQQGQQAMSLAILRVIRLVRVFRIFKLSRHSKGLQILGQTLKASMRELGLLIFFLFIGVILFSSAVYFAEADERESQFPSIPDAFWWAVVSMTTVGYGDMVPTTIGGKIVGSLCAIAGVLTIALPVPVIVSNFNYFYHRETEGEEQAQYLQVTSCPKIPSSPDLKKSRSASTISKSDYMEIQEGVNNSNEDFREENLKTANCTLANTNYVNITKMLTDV
T3 sequence (Q09470 whole entry): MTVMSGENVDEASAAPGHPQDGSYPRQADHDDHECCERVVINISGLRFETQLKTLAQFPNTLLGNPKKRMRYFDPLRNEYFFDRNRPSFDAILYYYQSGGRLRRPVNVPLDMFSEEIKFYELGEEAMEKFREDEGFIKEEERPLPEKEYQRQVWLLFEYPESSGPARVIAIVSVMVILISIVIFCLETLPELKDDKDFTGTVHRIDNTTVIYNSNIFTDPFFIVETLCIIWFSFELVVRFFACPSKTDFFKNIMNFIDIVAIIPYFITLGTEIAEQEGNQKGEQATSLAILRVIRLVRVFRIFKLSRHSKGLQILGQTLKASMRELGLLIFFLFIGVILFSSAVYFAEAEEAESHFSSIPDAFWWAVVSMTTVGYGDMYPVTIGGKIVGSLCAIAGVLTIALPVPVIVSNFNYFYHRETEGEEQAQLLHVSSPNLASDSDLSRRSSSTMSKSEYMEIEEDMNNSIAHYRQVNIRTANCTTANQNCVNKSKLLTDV
T1 sequence (P17658 whole entry): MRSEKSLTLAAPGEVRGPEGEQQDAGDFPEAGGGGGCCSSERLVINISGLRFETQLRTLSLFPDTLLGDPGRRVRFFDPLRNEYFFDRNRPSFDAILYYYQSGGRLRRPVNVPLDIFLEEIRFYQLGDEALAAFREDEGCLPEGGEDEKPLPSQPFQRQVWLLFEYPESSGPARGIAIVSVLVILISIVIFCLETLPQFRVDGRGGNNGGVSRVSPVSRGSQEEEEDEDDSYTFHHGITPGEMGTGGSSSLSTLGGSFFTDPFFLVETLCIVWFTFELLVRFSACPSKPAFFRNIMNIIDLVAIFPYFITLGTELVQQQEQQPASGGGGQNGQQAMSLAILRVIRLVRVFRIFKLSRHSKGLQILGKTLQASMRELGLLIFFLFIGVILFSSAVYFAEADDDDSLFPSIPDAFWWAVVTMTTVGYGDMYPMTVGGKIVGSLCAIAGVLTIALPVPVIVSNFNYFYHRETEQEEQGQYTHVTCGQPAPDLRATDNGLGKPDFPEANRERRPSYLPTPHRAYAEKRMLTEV

Compound	Selectivity ratio Kv1.6/Kv1.3 (human Kv1.6)	Selectivity ratio Kv1.2/Kv1.3 (human Kv1.2)	Selectivity ratio Kv1.1/Kv1.3 (human Kv1.1)	IC50 (Rat whole blood)
CC[C@H](C)[C@@H]1NC(=O)[C@H](C)NC(=O)[C@H](CCCCN)NC(=O)[C@H](CC(C)C)NC(=O)[C@@H]2CSSC[C@@H](C(=O)N[C@@H](Cc3ccc(O)cc3)C(=O)N3CCC[C@H]3C(=O)N[C@@H](CCCNC(=N)N)C(N)=O)NC(=O)[C@H](CCCCN)NC(=O)[C@@H]3CSSC[C@H](NC(=O)[C@H](CCC(=O)O)NC(=O)[C@H](C(C)C)NC(=O)[C@H](CO)NC(=O)[C@H]([C@@H](C)CC)NC(=O)[C@H](CO)NC(=O)[C@@H](NC(=O)[C@H](CCCNC(=N)N)NC(=O)[C@H](CCSC)NC(=O)[C@H](CC(=O)O)NC(=O)[C@H](CCSC)NC(=O)[C@@H](N)CC(N)=O)CSSC[C@H](NC(=O)[C@H](CCCCN)NC(=O)CNC(=O)[C@H](Cc4ccccc4)NC(=O)[C@H]([C@@H](C)CC)NC(=O)[C@H](CO)NC(=O)CNC1=O)C(=O)N[C@@H](CCSC)C(=O)N[C@@H](CC(N)=O)C(=O)N[C@@H](CCCCN)C(=O)N[C@@H](CCCCN)C(=O)N3)C(=O)N[C@@H](CCCCN)C(=O)N[C@@H](CCC(N)=O)C(=O)N[C@@H](CCCCN)C(=O)N2 [compound 30] (H-NMDMRCSISVECKQKCLKAIGSIFGKCMNKKCKCYPR-NH2; disulfide 6-27, 12-32, 16-34)	>11800	169	>11800	0.61 nM
CCCC[C@@H]1NC(=O)[C@@H]2CSSC[C@H](NC(=O)[C@H](CCCNC(=N)N)NC(=O)[C@H](CC(C)C)NC(C)=O)C(=O)N[C@@H](CO)C(=O)N[C@@H](C)C(=O)N[C@@H](CO)C(=O)N[C@@H](C(C)C)C(=O)N[C@@H](CCC(=O)O)C(=O)N[C@H]3CSSC[C@H](NC(=O)[C@H](CCCCN)NC(=O)[C@H](CCCCN)NC(=O)[C@H](CC(N)=O)NC1=O)C(=O)N[C@@H](CCCCN)C(=O)N[C@H](C(=O)N[C@@H](Cc1ccc(O)cc1)C(=O)N1CCC[C@H]1C(=O)N[C@@H](CCCNC(=N)N)C(N)=O)CSSC[C@H](NC(=O)[C@H](CCCCN)NC(=O)[C@H](CCC(N)=O)NC(=O)[C@H](CCCCN)NC3=O)C(=O)N[C@@H](CC(C)C)C(=O)N[C@@H](CCCCN)C(=O)N[C@@H](C)C(=O)N[C@@H]([C@@H](C)CC)C(=O)NCC(=O)N[C@@H](CO)C(=O)N[C@@H]([C@@H](C)CC)C(=O)N[C@@H](Cc1ccccc1)C(=O)NCC(=O)N[C@@H](CCCCN)C(=O)N2 [compound 102] (Ac-LRCSASVECKQKCLKAIGSIFGKC[Nle]NKKCKCYPR-NH2; disulfide 3-24, 9-29, 13-31)	7096	352	>8700	0.37 nM
CC[C@H](C)[C@@H]1NC(=O)[C@H](C)NC(=O)[C@H](CCCCN)NC(=O)[C@H](CC(C)C)NC(=O)[C@@H]2CSSC[C@@H](C(=O)N[C@@H](Cc3ccc(O)cc3)C(=O)N3CCC[C@H]3C(=O)N[C@@H](CCCNC(=N)N)C(=O)O)NC(=O)[C@H](CCCCN)NC(=O)[C@@H]3CSSC[C@H](NC(=O)[C@H](CCC(=O)O)NC(=O)[C@H](C(C)C)NC(=O)[C@H](CO)NC(=O)[C@H](C)NC(=O)[C@H](CO)NC(=O)[C@@H](N)CSSC[C@H](NC(=O)[C@H](CCCCN)NC(=O)CNC(=O)[C@H](Cc4ccccc4)NC(=O)[C@H]([C@@H](C)CC)NC(=O)[C@H](CO)NC(=O)CNC1=O)C(=O)N[C@@H](CCSC)C(=O)N[C@@H](CC(N)=O)C(=O)N[C@@H](CCCCN)C(=O)N[C@@H](CCCCN)C(=O)N3)C(=O)N[C@@H](CCCCN)C(=O)N[C@@H](CCC(N)=O)C(=O)N[C@@H](CCCCN)C(=O)N2 [compound 106] (H-CSASVECKQKCLKAIGSIFGKCMNKKCKCYPR-OH; disulfide 1-22, 7-27, 11-29)	>1400	878	>1400	1.9 nM
CC[C@H](C)[C@@H]1NC(=O)[C@H](C)NC(=O)[C@H](CCCCN)NC(=O)[C@H](CC(C)C)NC(=O)[C@@H]2CSSC[C@@H](C(=O)N[C@@H](Cc3ccc(O)cc3)C(=O)N3CCC[C@H]3C(=O)N[C@@H](CCCNC(=N)N)C(N)=O)NC(=O)[C@H](CCCCN)NC(=O)[C@@H]3CSSC[C@H](NC(=O)[C@H](CCC(=O)O)NC(=O)[C@H](C(C)C)NC(=O)[C@H](CO)NC(=O)[C@H](C)NC(=O)[C@H](CO)NC(=O)[C@@H](NC(=O)[C@H](CCCNC(=N)N)NC(=O)[C@H](CCSC)NC(=O)[C@H](CC(=O)O)NC(=O)[C@H](CCSC)NC(=O)[C@@H](N)CC(N)=O)CSSC[C@H](NC(=O)[C@H](CCCCN)NC(=O)CNC(=O)[C@H](Cc4ccccc4)NC(=O)[C@H]([C@@H](C)CC)NC(=O)[C@H](CO)NC(=O)[C@H](CCCNC(=N)N)NC1=O)C(=O)N[C@@H](CCSC)C(=O)N[C@@H](CC(N)=O)C(=O)N[C@@H](CCCCN)C(=O)N[C@@H](CCCCN)C(=O)N3)C(=O)N[C@@H](CCCCN)C(=O)N[C@@H](CCC(N)=O)C(=O)N[C@@H](CCCCN)C(=O)N2 [compound 26] (H-NMDMRCSASVECKQKCLKAIRSIFGKCMNKKCKCYPR-NH2; disulfide 6-27, 12-32, 16-34)	2851	259	>13700	0.82 nM
CC[C@H](C)[C@@H]1NC(=O)[C@H](C)NC(=O)[C@H](CCCCN)NC(=O)[C@H](CC(C)C)NC(=O)[C@@H]2CSSC[C@@H](C(=O)N[C@@H](Cc3ccc(O)cc3)C(=O)N3CCC[C@H]3C(=O)N[C@@H](CCCNC(=N)N)C(N)=O)NC(=O)[C@H](CCCCN)NC(=O)[C@@H]3CSSC[C@H](NC(=O)[C@H](CCC(=O)O)NC(=O)[C@H](C(C)C)NC(=O)[C@H](CO)NC(=O)[C@H](C)NC(=O)[C@H](CO)NC(=O)[C@@H](NC(=O)[C@H](CCCNC(=N)N)NC(=O)[C@H](CCSC)NC(=O)[C@H](CC(=O)O)NC(=O)[C@H](CCSC)NC(=O)[C@@H](N)CC(N)=O)CSSC[C@H](NC(=O)[C@H](CCCCN)NC(=O)CNC(=O)[C@H](Cc4ccccc4)NC(=O)[C@H]([C@@H](C)CC)NC(=O)[C@H](CO)NC(=O)[C@H](CCC(=O)O)NC1=O)C(=O)N[C@@H](CCSC)C(=O)N[C@@H](CC(N)=O)C(=O)N[C@@H](CCCCN)C(=O)N[C@@H](CCCCN)C(=O)N3)C(=O)N[C@@H](CCCCN)C(=O)N[C@@H](CCC(N)=O)C(=O)N[C@@H](CCCCN)C(=O)N2 [compound 27] (H-NMDMRCSASVECKQKCLKAIESIFGKCMNKKCKCYPR-NH2; disulfide 6-27, 12-32, 16-34)	>10200	615	>10200	2.8 nM
CCCC[C@@H]1NC(=O)[C@@H]2CSSC[C@H](NC(=O)[C@H](CCCNC(=N)N)NC(=O)[C@H](CCCC)NC(=O)[C@H](CC(=O)O)NC(=O)[C@H](CCCC)NC(=O)[C@@H](N)CC(N)=O)C(=O)N[C@@H](CO)C(=O)N[C@@H](C)C(=O)N[C@@H](CO)C(=O)N[C@@H](C(C)C)C(=O)N[C@@H](CCC(=O)O)C(=O)N[C@H]3CSSC[C@H](NC(=O)[C@H](CCCCN)NC(=O)[C@H](CCCCN)NC(=O)[C@H](CC(N)=O)NC1=O)C(=O)N[C@@H](CCCCN)C(=O)N[C@H](C(=O)N[C@@H](Cc1ccc(O)cc1)C(=O)N1CCC[C@H]1C(=O)N[C@@H](CCCNC(=N)N)C(N)=O)CSSC[C@H](NC(=O)[C@H](CCCCN)NC(=O)[C@H](CCC(N)=O)NC(=O)[C@H](CCCCN)NC3=O)C(=O)N[C@@H](CCCCN)C(=O)N[C@@H](C)C(=O)N[C@@H]([C@@H](C)CC)C(=O)NCC(=O)N[C@@H](CO)C(=O)N[C@@H]([C@@H](C)CC)C(=O)N[C@@H](Cc1ccccc1)C(=O)NCC(=O)N[C@@H](CCCCN)C(=O)N2 [compound 53] (H-N[Nle]D[Nle]RCSASVECKQKCKAIGSIFGKC[Nle]NKKCKCYPR-NH2; disulfide 6-26, 12-31, 16-33)	707	123	>2200	1 nM
CCCC[C@@H]1NC(=O)[C@@H]2CSSC[C@H](NC(C)=O)C(=O)N[C@@H](CO)C(=O)N[C@@H](C)C(=O)N[C@@H](CO)C(=O)N[C@@H](C(C)C)C(=O)N[C@@H](CCC(=O)O)C(=O)N[C@H]3CSSC[C@H](NC(=O)[C@H](CCCCN)NC(=O)[C@H](CCCCN)NC(=O)[C@H](CC(N)=O)NC1=O)C(=O)N[C@@H](CCCCN)C(=O)N[C@H](C(=O)N[C@@H](Cc1ccc(O)cc1)C(=O)N1CCC[C@H]1C(=O)N[C@@H](CCCNC(=N)N)C(N)=O)CSSC[C@H](NC(=O)[C@H](CCCCN)NC(=O)[C@H](CCC(N)=O)NC(=O)[C@H](CCCCN)NC3=O)C(=O)N[C@@H](CC(C)C)C(=O)N[C@@H](CCCCN)C(=O)N[C@@H](C)C(=O)N[C@@H]([C@@H](C)CC)C(=O)NCC(=O)N[C@@H](CO)C(=O)N[C@@H]([C@@H](C)CC)C(=O)N[C@@H](Cc1ccccc1)C(=O)NCC(=O)N[C@@H](CCCCN)C(=O)N2 [compound 99] (Ac-CSASVECKQKCLKAIGSIFGKC[Nle]NKKCKCYPR-NH2; disulfide 1-22, 7-27, 11-29)	>12400	1591	>12400	0.88 nM
CC[C@H](C)[C@@H]1NC(=O)[C@H](C)NC(=O)[C@H](Cc2ccc(O)cc2)NC(=O)[C@H](CC(C)C)NC(=O)[C@@H]2CSSC[C@@H](C(=O)N[C@@H](Cc3ccc(O)cc3)C(=O)N3CCC[C@H]3C(=O)N[C@@H](CCCNC(=N)N)C(N)=O)NC(=O)[C@H](CCCCN)NC(=O)[C@@H]3CSSC[C@H](NC(=O)[C@H](CCC(=O)O)NC(=O)[C@H](C(C)C)NC(=O)[C@H](CO)NC(=O)[C@H](C)NC(=O)[C@H](CO)NC(=O)[C@@H](NC(=O)[C@H](CCCNC(=N)N)NC(=O)[C@H](CCSC)NC(=O)[C@H](CC(=O)O)NC(=O)[C@H](CCSC)NC(=O)[C@@H](N)CC(N)=O)CSSC[C@H](NC(=O)[C@H](CCCCN)NC(=O)CNC(=O)[C@H](Cc4ccccc4)NC(=O)[C@H]([C@@H](C)CC)NC(=O)[C@H](CO)NC(=O)CNC1=O)C(=O)N[C@@H](CCSC)C(=O)N[C@@H](CC(N)=O)C(=O)N[C@@H](CCCCN)C(=O)N[C@@H](CCCCN)C(=O)N3)C(=O)N[C@@H](CCCCN)C(=O)N[C@@H](CCC(N)=O)C(=O)N[C@@H](CCCCN)C(=O)N2 [compound 57] (H-NMDMRCSASVECKQKCLYAIGSIFGKCMNKKCKCYPR-NH2; disulfide 6-27, 12-32, 16-34)	>10300	514	>10300	–
